Here are results for 1 substance from patent publication US20110105397A1, “METHOD FOR TREATING HEART FAILURE WITH STRESSCOPIN-LIKE PEPTIDES” (priority 2009, published 2011).

Series [1] has as its system dogs with advanced heart failure. Nature of the series: LV pressure-volume relationship in dogs with advanced heart failure, 120-min infusion. Conditions: HF dogs. Type of series: in vivo, dog. The method, then:
In a subsequent study baseline hemodynamic, ventriculographic, echocardiographic and LV pressure-volume was measured, before each dog was intravenously administered a continuous, 4.3 ng/kg/min infusion of h-SCP (SEQ ID NO:1) for 120 min. At the end of the 120-min infusion, complete hemodynamic, ventriculographic, echocardiographic, and LV pressure-volume measurements were repeated. Lead II on the electrocardiogram was monitored throughout the study for development of de novo ventricular arrhythmias. The dosing solutions were not adjusted or corrected for peptide content since the peptide content of the test article used in these studies fell between the customary 85-90% limit where this correction is not required. […]
All hemodynamic measurements were made during left and right heart catheterizations in anaesthelized dogs at each specified study time point. Aortic and LV pressures were measured using cathetenip micromanometers (Millar Instruments, Houston, Tex.), and LV end-diastolic pressure (LVEDP) was measured from the LV pressure waveform. […] Ventriculography were recorded on digital media at 30 frames per second during a power injection of 15 mL of contrast material (Conray; Mallinckrodt Inc., St. Louis, Mo.). […] The end-systolic and end-diastolic pressure-volume points were determined for beats at end-expiration in the usual fashion. […]

A further series in a line: in vivo. The conditions noted are these: dog, iv. As for the experimental part: The findings described above were further examined in a study, in which h-SCP (SEQ ID NO:1) was infused over a 30-minute period at the same total doses that were administered by bolus as described above with the results presented in Table 17 and FIGS. 11A & B. As in the case of bolus dosing h-SCP (SEQ ID NO:1) elicited dose- (infusion-) dependent changes in blood pressure, left ventricular systolic and diastolic function, and heart rate. However, at the lower range of the dose- (infusion-) response curve there was a pronounced lessening in the positive chronotropic and blood pressure response with marked and significant increase in cardiac function measured as increased CO and LVEF. […] The corresponding plasma concentration of h-SCP (SEQ ID NO:1) was 4,577 pg/mL.
A sandwich immunoassay was developed using an affinity purified goat polyclonal antibody, specific to h-SCP that was pre-coated onto a microplate with integrated electrodes. h-SCP molecules present in the sample will bind to the capture polyclonal antibody coated on the plate. After washing away any unbound substances, a sulfo-tagged mouse monoclonal anti-h-SCP antibody was added. This conjugated antibody will bind to the h-SCP molecules captured on the microplate and the quantity of analyte was determined by electrochemiluminescence. The amount of signal generated is directly proportional to the h-SCP concentration in the sample or standard. The standard curve range is 3.125-1600 pg/mL with a quantifiable range from 10-800 pg/mL. A sample volume of 25 μL (in duplicate) is required for this assay. This immunoassay is specific for human and dog stresscopin and human urocortin III (h-UCN3). […] After completion of the analysis, based on a comparison of reference standards between the ELISA and HPLC method, a correction factor of 1.57 was applied to all bioanalytical data.

The test system of series [2] is subjects with heart failure. Description: Echocardiography substudy in heart failure subjects. Type of series: in vivo, human. As for the experimental part:
An echocardiography substudy was conducted to examine the impact of h-SCP (SEQ ID NO:1) on cardiodynamic parameters. Five subjects elected to participate in the echocardiography substudy. One subject received placebo and 4 subjects received h-SCP (SEQ ID NO:1) at doses ranging from 9 to 45 ng/kg/min during their last 2.5-hour infusion period when the echocardiogram was obtained. […] Because of the small number of subjects who participated in this substudy and the varied dose administered the results are not conclusionary, but mainly indicative of the effect.

Several values for one entry are separate records, joined by “and”; a condition that tells them apart may be missing. Identical values can stand only once.

For “H-TKFTLSLDVPTNIMNLLFNIAKAKNLRAQAAANAHLMAQI-NH2 [SEQ ID NO: 1, TKFTLSLDVPTNIMNLLFNIAKAKNLRAQAAANAHLMAQI-NH2]”, the “absolute value of EDPVR slope” value in series [1] (4.3 ng/kg/min infusion for 120 min (untreated 0.257)) was 0.128. The “slope of the ESPVR” value in series [1] (4.3 ng/kg/min infusion for 120 min (untreated 1.38±0.26)) worked out at 2.26±0.46. Further, the level at 0.5 h in “in vivo” (22 ng/kg/min) turned out to be 0.62 ng/mL; in the series “in vivo” (43 ng/kg/min), 4.58 ng/mL; in “in vivo” (86 ng/kg/min), 5.14 ng/mL; in “in vivo” (146 ng/kg/min) it was 23.6 ng/mL; in “in vivo” (437 ng/kg/min), 67.1 ng/mL. The level at time molar at 0.5 h is 0.142 nM in the series “in vivo” (22 ng/kg/min); 1.05 nM in “in vivo” (43 ng/kg/min); 1.18 nM in the series “in vivo” (86 ng/kg/min); 5.41 nM in the series “in vivo” (146 ng/kg/min); 15.4 nM in the series “in vivo” (437 ng/kg/min). Further, the “ejection fraction after infusion” value is 24.5% in series [2] (one subject, 9 ng/kg/min, from 20%); 30.3% in series [2] (one subject, 36 ng/kg/min, from 25.0%); 34.7% and 26.1% in series [2] (two subjects, 45 ng/kg/min, from 36.0% and from 28.0%, listed as h-SCP).
